Test results published in patent US20140323504A1, “Pyrazolo[4,3-c]Pyridine Derivatives As Kinase Inhibitors” (Cellzome Limited, priority 2011, published 2014).
Where “and” joins values, the source holds several entries; their conditions need not be identical. Identical values can stand only once.

Legend:
[1] = target: T1, JAK2 (Homo sapiens, UniProt O60674); assay: Kinobeads assay with antibody detection, JAK2; assay type: binding; details: mixed Molt4/Ramos lysate, read-out: JAK2 inhibition value (IC50)
T1 construct: endogenous in cells; host or cells: mixed Molt4/Ramos cell lysate (1:2)
T1 sequence (O60674 whole entry): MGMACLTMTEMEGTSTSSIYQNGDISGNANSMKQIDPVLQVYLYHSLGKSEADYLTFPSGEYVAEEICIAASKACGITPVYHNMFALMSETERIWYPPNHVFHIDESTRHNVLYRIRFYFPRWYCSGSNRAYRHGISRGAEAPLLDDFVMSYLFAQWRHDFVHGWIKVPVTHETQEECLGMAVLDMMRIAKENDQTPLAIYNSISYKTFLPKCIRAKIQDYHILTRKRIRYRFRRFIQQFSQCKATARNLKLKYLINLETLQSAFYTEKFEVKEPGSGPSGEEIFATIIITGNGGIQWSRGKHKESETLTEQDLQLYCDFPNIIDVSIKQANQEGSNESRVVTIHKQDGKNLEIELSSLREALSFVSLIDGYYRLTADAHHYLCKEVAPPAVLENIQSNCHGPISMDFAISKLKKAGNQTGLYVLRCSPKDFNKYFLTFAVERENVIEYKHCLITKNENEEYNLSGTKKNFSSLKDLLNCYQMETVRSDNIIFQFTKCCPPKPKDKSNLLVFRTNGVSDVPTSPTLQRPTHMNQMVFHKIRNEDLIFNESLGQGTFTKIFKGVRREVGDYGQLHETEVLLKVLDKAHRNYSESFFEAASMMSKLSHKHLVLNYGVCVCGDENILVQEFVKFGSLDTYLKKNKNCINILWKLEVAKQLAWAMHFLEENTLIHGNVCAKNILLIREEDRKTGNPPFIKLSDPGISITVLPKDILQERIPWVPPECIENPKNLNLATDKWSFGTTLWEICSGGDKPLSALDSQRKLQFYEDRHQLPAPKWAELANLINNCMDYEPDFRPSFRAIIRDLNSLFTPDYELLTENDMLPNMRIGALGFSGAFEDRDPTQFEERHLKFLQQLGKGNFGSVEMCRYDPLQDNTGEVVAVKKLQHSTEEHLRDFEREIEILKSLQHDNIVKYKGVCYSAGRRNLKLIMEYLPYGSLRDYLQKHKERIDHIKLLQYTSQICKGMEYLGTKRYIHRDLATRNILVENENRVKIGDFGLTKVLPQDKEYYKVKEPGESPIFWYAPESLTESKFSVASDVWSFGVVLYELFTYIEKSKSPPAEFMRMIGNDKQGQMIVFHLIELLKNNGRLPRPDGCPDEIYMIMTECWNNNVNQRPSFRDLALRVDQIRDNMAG
Experimental: (§1) The compounds of the present invention as described in the previous examples were tested in a Kinobeads™ assay as described for ZAP-70 (WO-A 2007/137867). Briefly, test compounds (at various concentrations) and the affinity matrix with the immobilized aminopyrido-pyrimidine ligand 24 were added to cell lysate aliquots and allowed to bind to the proteins in the lysate sample. After the incubation time the beads with captured proteins were separated from the lysate. Bound proteins were then eluted and the presence of JAK1; JAK2, JAK3 and TYK2 was detected and quantified using specific antibodies in a dot blot procedure and the Odyssey infrared detection system. Dose response curves for individual kinases were generated and IC50 values calculated. Kinobeads™ assays for ZAP-70 (WO-A 2007/137867) and for kinase selectivity profiling (WO-A 2006/134056) have been previously described.
(§2) 5×DP buffer: 250 mM Tris-HCl pH 7.4, 25% Glycerol, 7.5 mM MgCl2, 750 mM NaCl, 5 mM Na3VO4; filter the 5×DP buffer through a 0.22 μm filter and store in aliquot at −80° C. The 5×DP buffer is diluted with H2O to 1×DP buffer containing 1 mM DTT and 25 mM NaF.
(§3) Stock solutions of test compounds were prepared in DMSO. In a 96 well plate 30 μL solution of diluted test compounds at 5 mM in DMSO were prepared. Starting with this solution a 1:3 dilution series (9 steps) was prepared. For control experiments (no test compound) a buffer containing 2% DMSO was used.
(§4) Molt4 cells (ATCC catalogue number CRL-1582) and Ramos cells (ATCC catalogue number CRL-1596) were grown in 1 L Spinner flasks (Integra Biosciences, #182101) in suspension in RPMI 1640 medium (Invitrogen, #21875-034) supplemented with 10% Fetal Bovine Serum (Invitrogen) at a density between 0.15×10^6 and 1.2×10^6 cells/mL. Cells were harvested by centrifugation, washed once with 1×PBS buffer (Invitrogen, #14190-094) and cell pellets were frozen in liquid nitrogen and subsequently stored at −80° C. Cells were homogenized in a Potter S homogenizer in lysis buffer: 50 mM Tris-HCl, 0.8% NP40, 5% glycerol, 150 mM NaCl, 1.5 mM MgCl2, 25 mM NaF, 1 mM sodium vanadate, 1 mM DTT, pH 7.5. One complete EDTA-free tablet (protease inhibitor cocktail, Roche Diagnostics, 1873580) per 25 mL buffer was added. The material was dounced 10 times using a mechanized POTTER S, transferred to 50 mL falcon tubes, incubated for 30 minutes on ice and spun down for 10 minutes at 20,000 g at 4° C. (10,000 rpm in Sorvall SLA600, precooled). The supernatant was transferred to an ultracentrifuge (UZ)-polycarbonate tube (Beckmann, 355654) and spun for 1 hour at 100.000 g at 4° C. (33.500 rpm in Ti50.2, precooled). The supernatant was transferred again to a fresh 50 mL falcon tube, the protein concentration was determined by a Bradford assay (BioRad) and samples containing 50 mg of protein per aliquot were prepared. The samples were immediately used for experiments or frozen in liquid nitrogen and stored frozen at −80° C.
(§5) Cell lysate (approximately 50 mg protein per plate) was thawed in a water bath at room temperature and then stored on ice. To the thawed cell lysate 1×DP 0.8% NP40 buffer containing protease inhibitors (1 tablet for 25 mL buffer; EDTA-free protease inhibitor cocktail; Roche. Diagnostics 1873580) was added in order to reach a final protein concentration of 10 mg/mL total protein. The diluted cell lysate was stored on ice. Mixed Molt4Ramos lysate was prepared by combining one volume of Molt4 lysate and two volumes of Ramos lysate (ratio 1:2).
(§6) Plates were sealed and incubated for 3 hours in a cold room on a plate shaker (Heidolph tiramax 1000) at 750 rpm. Afterwards the plate was washed 3 times with 230 μL washing buffer (1×DP 0.4% NP40). The filter plate was placed on top of a collection plate (Greiner bio-one, PP-microplate 96 well V-shape, 65120) and the beads were then eluted with 20 μL of sample buffer (100 mM Tris, pH 7.4, 4% SDS, 0.00025% bromophenol blue, 20% glycerol, 50 mM DTT). […]

[2] = target: T2, JAK3 (Homo sapiens, UniProt P52333); assay: Kinobeads assay with antibody detection, JAK3; assay type: binding; parameters: endogenous in cells; host or cells: mixed Molt4/Ramos cell lysate (1:2); details: mixed Molt4/Ramos lysate, read-out: JAK3 inhibition value (IC50)
T2 sequence (P52333 1-1124): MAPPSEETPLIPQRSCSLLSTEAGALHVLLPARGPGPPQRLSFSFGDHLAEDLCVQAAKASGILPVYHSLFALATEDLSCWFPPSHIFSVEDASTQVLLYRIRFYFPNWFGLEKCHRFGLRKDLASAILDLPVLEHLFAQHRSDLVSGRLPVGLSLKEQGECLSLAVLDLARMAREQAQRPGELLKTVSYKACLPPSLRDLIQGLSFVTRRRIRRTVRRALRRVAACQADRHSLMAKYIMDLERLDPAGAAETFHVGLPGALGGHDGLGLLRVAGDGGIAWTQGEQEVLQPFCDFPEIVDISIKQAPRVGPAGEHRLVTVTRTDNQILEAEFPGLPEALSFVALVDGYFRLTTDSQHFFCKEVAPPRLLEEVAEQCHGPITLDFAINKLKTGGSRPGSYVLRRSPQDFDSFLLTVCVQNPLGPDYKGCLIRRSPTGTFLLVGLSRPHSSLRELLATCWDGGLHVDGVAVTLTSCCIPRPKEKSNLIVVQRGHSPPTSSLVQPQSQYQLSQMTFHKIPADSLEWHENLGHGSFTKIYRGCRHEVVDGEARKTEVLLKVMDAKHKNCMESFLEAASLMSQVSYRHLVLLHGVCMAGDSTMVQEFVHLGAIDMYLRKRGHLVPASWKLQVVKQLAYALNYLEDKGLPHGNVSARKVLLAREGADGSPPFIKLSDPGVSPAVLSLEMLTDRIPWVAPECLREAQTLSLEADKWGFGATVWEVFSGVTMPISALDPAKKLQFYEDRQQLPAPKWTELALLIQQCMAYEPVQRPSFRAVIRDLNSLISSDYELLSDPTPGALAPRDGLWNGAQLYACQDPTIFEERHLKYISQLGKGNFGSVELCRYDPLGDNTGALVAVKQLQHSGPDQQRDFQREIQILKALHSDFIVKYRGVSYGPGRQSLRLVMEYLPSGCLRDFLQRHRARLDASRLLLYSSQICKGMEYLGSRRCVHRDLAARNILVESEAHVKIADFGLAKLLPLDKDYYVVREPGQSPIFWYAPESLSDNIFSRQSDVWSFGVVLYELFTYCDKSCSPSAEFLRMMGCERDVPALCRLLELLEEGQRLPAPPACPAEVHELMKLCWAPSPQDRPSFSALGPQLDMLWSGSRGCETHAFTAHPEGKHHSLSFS
Experimental: as §1, §2, §3, §4, §5, §6

[3] = target: T3, JAK1 (Homo sapiens, UniProt P23458); assay: Kinobeads assay with antibody detection, JAK1; assay type: binding; details: mixed Molt4/Ramos lysate, read-out: JAK1 inhibition value (IC50)
T3 construct: endogenous in cells; host or cells: mixed Molt4/Ramos cell lysate (1:2)
T3 sequence (P23458 whole entry): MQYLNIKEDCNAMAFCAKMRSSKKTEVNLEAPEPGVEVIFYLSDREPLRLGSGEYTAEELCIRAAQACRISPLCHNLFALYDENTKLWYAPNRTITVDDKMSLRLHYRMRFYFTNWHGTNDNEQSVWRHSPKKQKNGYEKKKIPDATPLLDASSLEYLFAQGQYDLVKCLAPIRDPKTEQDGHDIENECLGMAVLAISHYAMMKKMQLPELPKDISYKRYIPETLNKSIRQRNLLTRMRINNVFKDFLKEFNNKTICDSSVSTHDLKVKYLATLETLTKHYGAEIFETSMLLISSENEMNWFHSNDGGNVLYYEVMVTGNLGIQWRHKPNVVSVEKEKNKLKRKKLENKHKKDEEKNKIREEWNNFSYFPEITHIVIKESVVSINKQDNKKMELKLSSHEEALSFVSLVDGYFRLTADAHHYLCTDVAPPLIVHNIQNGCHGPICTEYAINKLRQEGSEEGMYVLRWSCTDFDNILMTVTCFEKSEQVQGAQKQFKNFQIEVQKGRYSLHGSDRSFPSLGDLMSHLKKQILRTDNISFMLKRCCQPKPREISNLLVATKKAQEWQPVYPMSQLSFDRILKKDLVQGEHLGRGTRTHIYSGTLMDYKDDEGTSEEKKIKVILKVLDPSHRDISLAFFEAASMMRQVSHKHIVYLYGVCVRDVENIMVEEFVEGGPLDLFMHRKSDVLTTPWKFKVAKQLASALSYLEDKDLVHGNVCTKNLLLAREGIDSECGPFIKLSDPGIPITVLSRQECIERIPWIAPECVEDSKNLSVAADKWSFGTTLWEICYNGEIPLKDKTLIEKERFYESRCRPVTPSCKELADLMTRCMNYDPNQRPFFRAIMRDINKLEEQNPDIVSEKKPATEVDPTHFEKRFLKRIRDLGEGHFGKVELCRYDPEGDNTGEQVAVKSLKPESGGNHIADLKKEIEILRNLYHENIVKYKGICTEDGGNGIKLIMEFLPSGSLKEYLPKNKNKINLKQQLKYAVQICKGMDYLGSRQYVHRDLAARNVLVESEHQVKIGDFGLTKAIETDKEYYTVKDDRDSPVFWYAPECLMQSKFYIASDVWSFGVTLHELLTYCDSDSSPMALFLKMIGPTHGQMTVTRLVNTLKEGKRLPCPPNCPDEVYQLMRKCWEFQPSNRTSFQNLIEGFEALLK
Experimental: as §1, §2, §3, §4, §5, §6

[4] = target: T4, Tyk2 (Homo sapiens, UniProt P29597); assay: Kinobeads assay with antibody detection, TYK2; assay type: binding; details: mixed Molt4/Ramos lysate, read-out: Tyk2 inhibition value (IC50)
T4 construct: endogenous in cells; host or cells: mixed Molt4/Ramos cell lysate (1:2)
T4 sequence (P29597 whole entry): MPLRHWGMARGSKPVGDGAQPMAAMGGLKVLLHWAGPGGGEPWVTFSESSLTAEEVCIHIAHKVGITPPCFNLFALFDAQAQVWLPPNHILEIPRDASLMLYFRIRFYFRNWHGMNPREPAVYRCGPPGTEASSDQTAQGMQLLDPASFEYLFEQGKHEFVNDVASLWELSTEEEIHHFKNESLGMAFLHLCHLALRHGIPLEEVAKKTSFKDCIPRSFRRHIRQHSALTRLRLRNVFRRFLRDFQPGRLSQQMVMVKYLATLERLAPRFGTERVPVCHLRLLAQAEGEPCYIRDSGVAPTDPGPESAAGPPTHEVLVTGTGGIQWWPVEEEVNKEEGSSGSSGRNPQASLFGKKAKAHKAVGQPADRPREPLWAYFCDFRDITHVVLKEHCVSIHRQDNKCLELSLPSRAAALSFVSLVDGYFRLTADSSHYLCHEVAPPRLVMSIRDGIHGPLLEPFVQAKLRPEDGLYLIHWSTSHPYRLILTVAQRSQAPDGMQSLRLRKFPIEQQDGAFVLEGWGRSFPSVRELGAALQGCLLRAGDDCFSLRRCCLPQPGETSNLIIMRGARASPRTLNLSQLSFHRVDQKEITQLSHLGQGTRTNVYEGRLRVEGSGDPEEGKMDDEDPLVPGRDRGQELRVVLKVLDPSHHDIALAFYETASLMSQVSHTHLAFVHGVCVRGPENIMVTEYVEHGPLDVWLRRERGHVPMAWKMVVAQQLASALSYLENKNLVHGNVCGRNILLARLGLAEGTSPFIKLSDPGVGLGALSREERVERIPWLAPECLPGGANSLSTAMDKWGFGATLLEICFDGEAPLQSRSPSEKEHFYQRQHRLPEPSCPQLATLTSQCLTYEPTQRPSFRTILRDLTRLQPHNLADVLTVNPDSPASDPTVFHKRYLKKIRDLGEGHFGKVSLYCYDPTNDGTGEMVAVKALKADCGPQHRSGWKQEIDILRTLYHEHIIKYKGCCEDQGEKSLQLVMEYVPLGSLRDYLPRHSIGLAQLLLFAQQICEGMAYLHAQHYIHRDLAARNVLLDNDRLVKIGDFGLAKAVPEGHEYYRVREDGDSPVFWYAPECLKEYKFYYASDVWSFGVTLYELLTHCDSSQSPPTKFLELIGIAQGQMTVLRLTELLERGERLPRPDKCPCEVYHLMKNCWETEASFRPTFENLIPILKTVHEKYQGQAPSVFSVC
Experimental: as §1, §2, §3, §4, §5, §6

[5] = test system: STAT5 phosphorylation in IL-2 stimulated YT cells; assay: Cell assay with washout of compounds (pSTAT5, YT cells, MSD); assay type: cell-based, human
Experimental: This time course experiment allows determination as to whether the pharmacological effect of the tested compounds persists over time even after the compound is removed from the cell samples.
Human YT cells were grown as described above. Cells were harvested by centrifugation and resuspended in RPMI0.5% heat-inactivated FBS. 3×10^5 cells were seeded in 60 μl per well in a round-bottomed 96 well plate (BD-Falcon, 353077).
Test compounds were dissolved in DMSO and a 1:3 dilution series (9 steps) was prepared. To generate a dose response curve, 30 μl of fourfold concentrated compound in 4% DMSO/RPMI/0.5% FBS were added to each cell sample in the 96 well plate resulting in a final DMSO concentration of 1% DMSO. Cells were incubated for one hour in a humidified incubator (37° C., 5% CO2). After incubation cells were washed twice by centrifugation and replacement of media (RPMI/0.5% FBS), with the exception of the time 0 plate. Washed cells were incubated for 30 min, 1, 2 and 4 hours in a humidified incubator (37° C., 5% CO2) prior to stimulation with IL-2. To each well 30 μl of a fourfold concentrated IL-2 solution (Recombinant human IL-2, Peprotech 200-02; 120 nM solution in RPMI) was added and incubated for 30 minutes at room temperature. Cells were lysed by adding 30 μl of 5× lysis buffer (MSD lysis buffer) and incubated for 10 minutes at 4° C. with gentle shaking.
The effect of compounds on STATS phosphorylation was determined in lysates using the MSD MULTI-SPOT® 96 4-spot phosphor-STAT5a,b whole cell lysatc kit (MesoScale Discovery, K150IGD-3) according to the manufacturer's protocol. Data were analysed in BioAssay using the nonlinear regression for a sigmoidal dose-response with a variable slope and IC50 values were determined.

[6] = test system: animal model of organ transplantation; details: Changelian et al., 2003; cited from earlier work
[7] = test system: GVHD; details: Cetkovic-Cvrlje and Ucken, 2004; cited from earlier work
[8] = test system: NOD mouse model of type I diabetes; details: cited from earlier work
[9] = IL-2 stimulated YT cells, 0 min (no wash)

SMILES	IC50 [1]	IC50 [2]	IC50 [3]	IC50 [4]	also measured
C=CC(=O)Nc1cccc(Cn2ncc3cnc(Nc4ccn(C)n4)cc32)c1 [Example 8, N-(3-((6-((1-Methyl-1H-pyrazol-3-yl)amino)-1H-pyrazolo[4,3-c]pyridin-1-yl)methyl)phenyl)acrylamide]	> 10 µM	5 nM	> 10 µM	> 10 µM	–
Cn1cc(Nc2ncc3cnn(Cc4cccc(NC5COC5)c4)c3n2)cn1 [Reference example 1, N-(1-methyl-1H-pyrazol-4-yl)-1-(3-(oxetan-3-ylamino)benzyl)-1H-pyrazolo[3,4-d]pyrimidin-6-amine]	–	–	–	–	IC50 ([5]; Homo sapiens, 0 h, IL-2 stimulated YT cells, 0 min (no wash), read-out: pSTAT5 inhibition pIC50, 0 min (no wash) (converted)): 1580 nM; pSTAT5 inhibition pIC50, 0 min (no wash) [5, 9]: 5.7; pSTAT5 inhibition pIC50, 30 min after washout ([5]; IL-2 stimulated YT cells): inactive; pSTAT5 inhibition pIC50, 1 hour after washout ([5]; IL-2 stimulated YT cells): inactive; pSTAT5 inhibition pIC50, 2 hours after washout ([5]; IL-2 stimulated YT cells): inactive; pSTAT5 inhibition pIC50, 4 hours after washout ([5]; IL-2 stimulated YT cells): inactive
C=CC(=O)Nc1cccc(Cn2ncc3cnc(Nc4cnn(C)c4)cc32)c1 [Example 10, N-(3-((6-((1-Methyl-1H-pyrazol-4-yl)amino)-1H-pyrazolo[4,3-c]pyridin-1-yl)methyl)phenyl)acrylamide]	> 10 µM	1 nM	5.37 µM	5.08 µM	–
C[C@@H]1CCN(C(=O)CC#N)C[C@@H]1N(C)c1ncnc2[nH]ccc12 [Reference example 3, CP 690,550]	–	–	–	–	efficacy in organ transplantation model [6]: show efficacy in an animal model of organ transplantation; pSTAT5 inhibition pIC50, 0 min (no wash) [5, 9]: 7.6 and 7.8; pSTAT5 inhibition pIC50, 30 min after washout ([5]; IL-2 stimulated YT cells): 5.1; pSTAT5 inhibition pIC50, 1 hour after washout ([5]; IL-2 stimulated YT cells): inactive; pSTAT5 inhibition pIC50, 2 hours after washout ([5]; IL-2 stimulated YT cells): inactive; pSTAT5 inhibition pIC50, 4 hours after washout ([5]; IL-2 stimulated YT cells): Inactive; activity 30 minutes after the washing of cells ([5]; YT cells, 30 minutes after washing): significant drop in activity; inhibition activity 1 hour after washing ([5]; YT cells, 1 hour after washing): completely lost
C=CC(=O)Nc1cccc(Cn2ccc3cnc(Nc4cnn(C)c4)nc32)c1 [Example 9, N-(3-((2-((1-Methyl-1H-pyrazol-4-yl)amino)-7H-pyrrolo[2,3-d]pyrimidin-7-yl)methyl)phenyl)acrylamide]	> 10 µM	3 nM	9.42 µM	8.08 µM	–
CC(C)=CC(=O)Nc1cccc(Cn2ncc3cnc(Nc4cnn(C)c4)nc32)c1 [Example 6, 3-Methyl-N-(3-((6-((1-methyl-1H-pyrazol-4-yl)amino)-1H-pyrazolo[3,4-d]pyrimidin-1-yl)methyl)phenyl)but-2-enamide]	> 10 µM	1310 nM	> 10 µM	> 10 µM	–
COc1cc2ncnc(Nc3ccc(O)cc3)c2cc1OC [JANEX-1]	–	–	–	–	severity of GVHD [7]: attenuate the severity of GVHD; spontaneous autoimmune diabetes development [8]: prevent spontaneous autoimmune diabetes development
